Experiments:
[1] = Saturation vapour pressure of C5K at minimum service temperatures; assay type: physicochemical; conditions: for PC5K pressure equivalent at 20° C. to the saturation vapour pressure: formula (II)
Method: Table I below indicates the saturation vapour pressures, noted PVSC5K, which C5K has at the temperatures of 0, −5, −10, −15, −20, −25, −30, −35 and −40° C., which are the minimum service temperatures typically found for medium- and high-voltage electrical devices.
It also indicates the pressure values, noted PC5K, which correspond at 20° C. to these saturation vapour pressures, and which are obtained by applying formula (II) above.

[2] = humans and animals; cited from earlier work

| Structure (SMILES) | PVSC5K saturation vapour pressure ([1]; 0° C.) [kPa] | PC5K pressure equivalent at 20° C. to the saturation vapour pressure ([1]; 0° C.) [kPa] | PVSC5K saturation vapour pressure ([1]; −5° C.) [kPa] | PC5K pressure equivalent at 20° C. to the saturation vapour pressure ([1]; −5° C.) [kPa] | PVSC5K saturation vapour pressure ([1]; −10° C.) [kPa] | PC5K pressure equivalent at 20° C. to the saturation vapour pressure ([1]; −10° C.) [kPa] | PVSC5K saturation vapour pressure ([1]; −15° C.) [kPa] | PC5K pressure equivalent at 20° C. to the saturation vapour pressure ([1]; −15° C.) [kPa] | PVSC5K saturation vapour pressure ([1]; −20° C.) [kPa] | PC5K pressure equivalent at 20° C. to the saturation vapour pressure ([1]; −20° C.) [kPa] | PVSC5K saturation vapour pressure ([1]; −25° C.) [kPa] | PC5K pressure equivalent at 20° C. to the saturation vapour pressure ([1]; −25° C.) [kPa] | PVSC5K saturation vapour pressure ([1]; −30° C.) [kPa] | PC5K pressure equivalent at 20° C. to the saturation vapour pressure ([1]; −30° C.) [kPa] | PVSC5K saturation vapour pressure ([1]; −35° C.) [kPa] | PC5K pressure equivalent at 20° C. to the saturation vapour pressure ([1]; −35° C.) [kPa] | PVSC5K saturation vapour pressure ([1]; −40° C.) [kPa] | PC5K pressure equivalent at 20° C. to the saturation vapour pressure ([1]; −40° C.) [kPa] | Toxicity [2] |
| --- | --- | --- | --- | --- | --- | --- | --- | --- | --- | --- | --- | --- | --- | --- | --- | --- | --- | --- | --- |
| O=C(C(F)(F)F)C(F)(C(F)(F)F)C(F)(F)F [C5K, decafluoro-2-methylbutan-3-one] | 41.3 | 44.3 | 33.6 | 36.7 | 27.1 | 30.2 | 21.7 | 24.7 | 17.3 | 20.0 | 13.6 | 16.0 | 10.6 | 12.7 | 8.1 | 10.0 | 6.2 | 7.8 | – |
| FS(F)(F)(F)(F)F [SF6, sulphur hexafluoride] | – | – | – | – | – | – | – | – | – | – | – | – | – | – | – | – | – | – | non-toxic for humans and animals |
